Experimental data published in ChEMBL document CHEMBL1156320, “Discovery of novel (S)-alpha-phenyl-gamma-amino butanamide containing CCR5 antagonists via functionality inversion approach” (Bioorg Med Chem Lett, 2010).
pIC50: −log10 of the molar value. The source made the active and inactive calls. The calls are words filed in the database; no cut-off is given here.

Columns and labels:
Assay type in all cases: functional, cell-based
[1] = target: T1, C-C chemokine receptor type 5 (Homo sapiens, UniProt P51681); experiment: Antagonist activity at CCR5 receptor expressed in CHO cells assessed as inhibition of RANTES-induced […]GTPgammaS binding at 10 uM
Target sequence in this assay (P51681 whole entry, looked up): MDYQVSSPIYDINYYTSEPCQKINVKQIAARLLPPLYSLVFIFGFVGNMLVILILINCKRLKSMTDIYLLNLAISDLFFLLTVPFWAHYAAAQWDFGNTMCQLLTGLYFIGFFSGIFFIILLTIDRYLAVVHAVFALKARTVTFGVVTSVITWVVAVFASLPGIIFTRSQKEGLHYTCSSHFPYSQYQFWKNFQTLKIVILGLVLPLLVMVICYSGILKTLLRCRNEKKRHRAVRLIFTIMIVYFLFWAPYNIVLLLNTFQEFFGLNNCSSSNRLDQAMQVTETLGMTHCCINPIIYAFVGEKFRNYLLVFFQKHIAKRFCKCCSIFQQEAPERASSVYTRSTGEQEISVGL

[2] = target: T1, C-C chemokine receptor type 5; experiment: Antagonist activity at CCR5 receptor expressed in CHO cells assessed as inhibition of RANTES-induced […]GTPgammaS binding at 300 nM
Target sequence in this assay (P51681 whole entry, looked up): as above

[3] = target: T1, C-C chemokine receptor type 5; experiment: Antagonist activity at CCR5 receptor expressed in CHO cells assessed as inhibition of RANTES-induced […]GTPgammaS binding

Row | Compound | inhibition [2] | other results
1 | Cc1nc2cccnc2n1[C@@H]1C[C@H]2CC[C@@H](C1)N2CC[C@H](CO)c1ccccc1 |  | inhibition [1]: inactive
2 | Cc1nc2cccnc2n1[C@@H]1C[C@H]2CC[C@@H](C1)N2CC[C@H](C(=O)OCc1ccc(F)cc1)c1ccccc1 | 19% | 
3 | Cc1nc2cccnc2n1[C@@H]1C[C@H]2CC[C@@H](C1)N2CC[C@H](COCc1ccc(F)cc1)c1ccccc1 | 42% | 
4 | O=C(NCc1ccc(F)cc1)[C@@H](CCN1[C@@H]2CC[C@H]1C[C@H](n1nnc3cccnc31)C2)c1ccccc1 | 1% | 
5 | COC(=O)[C@@H](CCN1[C@@H]2CC[C@H]1C[C@@H](n1c(C)nc3cccnc31)C2)c1ccccc1 | 22% | pIC50 [3]: 6.95
6 | Cc1nc2cccnc2n1[C@H]1C[C@H]2CC[C@@H](C1)N2CC[C@H](C(=O)N1C(=O)OC[C@H]1Cc1ccccc1)c1ccccc1 (stereo in doubt; 1a) | 30% | 
7 | Cc1nc2cccnc2n1[C@H]1C[C@H]2CC[C@@H](C1)N2CC[C@H](C(=O)NCc1ccc(F)cc1)c1ccccc1 | 30% | pIC50 [3]: 7.84
8 | Cc1nc2cccnc2n1[C@H]1C[C@H]2CC[C@@H](C1)N2CC[C@H](C(=O)N1C(=O)OC[C@H]1Cc1ccccc1)c1ccccc1 (stereo in doubt; 1b) | 10% | 
9 | COC(=O)[C@@H](CCN1[C@@H]2CC[C@H]1C[C@H](n1nnc3cccnc31)C2)c1ccccc1 |  | C50 [3]: > 10 µM
